Series [1] in a line: In vitro melanin binding by microscale thermophoresis / initial fluorescence (Monolith NT.115 pico). The following applies: for Melanin binding classification: class by Kd; for Kd: IF or MST mode, 68% confidence. The source says:
Melanin binding of the CAI-II compounds was studied with a Monolith NT.115 pico (NanoTemper Technologies GmbH, Munich, Germany) device using the method of […] et al. […] Otherwise, normalized fluorescence signals and the ratio of relative fluorescence after heating (MST mode) were used. The MST software was used in expert mode to allow heating for 30 s. […] As ligand autofluorescence may interfere with the assay, their autofluorescence values were pretested with the detector used in experiment (nanoblue or pico-red). Fluorescence of the ligand should be below 20% of melanin fluorescence. Sample aggregation and adsorption to the capillaries were used also as exclusion criteria.
On the technique in general: MST reads how a fluorescent partner responds to local heating, with and without ligand.

For series [2], the system named is albino rabbits (New Zealand White). In words: IOP study in albino rabbits after single eye drop. In kind it is in vivo, rabbit. To be noted: for AUC0-last ± SD in albino rabbits (IOP decrease vs time): single 25 μL eye drop, CAI 0.5 or 1.0%, dorzolamide 2%, n = 5. The protocol:
(§1) Five 3–5 months old albino (New Zealand White, all females) and five 3–6 months old pigmented rabbits (Chinchilla Bastard, 1 male and 4 females) were purchased from Charles River Laboratories, UK and Germany, respectively. Prior to the experiments, the rabbits were habituated to handling, and the baseline values of IOP were measured. During the experiments, rabbits weighed 2.4–4.0 kg.
First, stock solutions of CAIs (250 mg/mL) in dimethyl sulfoxide (Sigma-Aldrich, Germany) were prepared. These stock solutions were diluted with PBS (pH 7.4) to obtain 1 mg/mL (0.1%) or 10 mg/mL (1%) solutions. Water-solubility of the compounds was enhanced with 2-hydroxypropyl-β-cyclodextrin (Sigma-Aldrich, Germany) (Table 1).
(§2) The CAI solutions were tested in albino rabbits (eye drops of 0.1, and 0.5 or 1.0%) and in pigmented rabbits (0.5 or 1.0%). The novel CAI concentrations in solutions were determined based on the drug solubility with the aim to load the highest possible drug concentration to the single eye drop.
(§3) The IOP levels in the rabbits were measured with a tonometer (Tonometer Pro, Icare Finland Ltd.). After baseline IOP measurements, a single eye drop (25 μL) was applied to the left eye, whereas the right eye was not treated. After eye drop instillation, the eyelids were kept open manually for 1 min. The IOP was measured from both eyes of the rabbits at 0.5, 1, 2, 3, 4, 5, 6, 7, and 8 h after eye drop instillation. In the case of the pigmented rabbits, the measurements were continued until 10 h postinstillation, and further until the IOP had returned to the normal baseline.
(§4) The CAIs were tested in the same rabbits to minimize interindividual data variation. Washout periods of at least 3 days were used between instillation of different compounds. The experiments started always at 8 a.m. to eliminate bias due to diurnal IOP fluctuation. At each time point, the pressure was measured three times with the same eye, and the average values were calculated and used in data analysis.

Series [3] relates to pigmented rabbits (Chinchilla Bastard). In words: IOP study in pigmented rabbits after single eye drop. In kind it is in vivo, rabbit. The following applies: for ratio (AUCpigm/AUCalbino) of IOP response: pigmented vs albino rabbits. The protocol:
as §1
First, stock solutions of CAIs (250 mg/mL) in dimethyl sulfoxide (Sigma-Aldrich, Germany) were prepared. These stock solutions were diluted with PBS (pH 7.4) to obtain 1 mg/mL (0.1%) or 10 mg/mL (1%) solutions.
as §2
Baseline IOP of pigmented rabbits was raised with two intravitreal triamcinolone acetonide injections (Triesence 40 mg/mL, Novartis Finland Ltd.) with 1 week interval to each eye. This method[25],[26] may induce ocular hypertension even up to 60 days in rabbits.[25]
The rabbits were anesthetized with 0.4 mg/kg, s.c. medetomidine (Domitor vet 1 mg/mL, Orion Pharma, Espoo, Finland) and 20 mg/kg s.c. ketamine (Ketaminol vet 50 mg/mL, Pfizer Oy Animal Health, Espoo, Finland). Mydriasis was induced with topical tropicamide eyedrops (Oftan Tropicamid 5 mg/mL, Santen Pharmaceutical Co., Ltd., Tampere, Finland) and the ocular surface was anesthetized with oxybuprocaine eye drop (Oftan Obucain 4 mg/mL, Santen Pharmaceutical Co., Ltd., Tampere, Finland). Thereafter, intravitreal injection of triamcinolone acetonide (100 μL) was given with a 31G needle and syringe. After injection, the eyes were moisturized with carbomer gel (Viscotears 2 mg/g, Dr. Gerhard Mann chem.-pharm. Fabrik GmbH, Berlin, Germany) and the anesthesia was antagonized with 1 mg/kg atipamezole s.c. (Antisedan vet 5 mg/mL, Orion Pharma, Espoo, Finland).
After the second injection, IOP was allowed to settle for 10 days before the experiments were performed. […] Induction of ocular hypertension is presented in Appendix Figure 3. The IOP-lowering effects of the molecules were investigated sequentially, each test initiating once baseline IOP levels was attained.
as §3, §4

In series [4] the target is recombinant human carbonic anhydrase II. Details: method as in earlier work. To be noted: stopped flow kinetics protocol; read-out: Ki against hCA II; cited from earlier work.
Series [5] concerns the target T1, human carbonic anhydrase II (Homo sapiens, UniProt P00918).
T1 construct: purchased Sigma
Description: Multiparametric surface plasmon resonance (MP-SPR) interaction kinetics with immobilized hCAII. It is filed as binding. The following applies: MP-SPR, 25 °C, 1:1 model; for Kd: read-out: KD. The protocol:
All MP-SPR measurements were conducted at 25 °C using carboxymethyl dextran hydrogel-coated (CMD-3DM) sensors (BioNavis) and were based on the protocol described by Rogez-Florent et al.[22]
Human carbonic anhydrase isoenzyme II (Sigma) was immobilized using a standard amine coupling procedure with the Amine Coupling Kit (BioNavis) and phosphate buffered saline (PBS) (20 mM phosphate buffer, 150 mM NaCl, pH 7.4) as the background buffer. Before immobilization, the sensor surface was cleaned with 2 M sodium chloride and 10 mM sodium hydroxide for 6 min at a flow rate of 30 μL/min. Then, a constant flow rate of 10 μL/min was maintained throughout the immobilization steps. The surface was activated for 7 min with 200 mM 1-ethyl-3-(3-(dimethylamino)propyl)-carbodiimide (EDC) and 50 mM N-hydroxysuccinimide, immediately followed by a 5 min injection of 45 μg/mL hCAII solution in 10 mM acetate buffer, pH 5.5. In the reference flow channel, no enzyme was immobilized. Residual activated groups of the dextran matrix were deactivated by a 7 min injection of 1 M ethanolamine HCl, pH 8.3.
For analyzing CAIs, 1% (v/v) DMSO in PBS, pH 7.4, was used as a running buffer. All CAIs were dissolved in 100% DMSO and stored as 50 mM stock solutions. These stock solutions were further diluted with the running buffer and analyzed using a 3-fold (3–1000 nM) dilution series. […] Each analyte was injected at a flow rate of 100 μL/min, with an association time of 2 min and a dissociation time of 10 min. […] Seven concentrations were measured for each CAI per cycle, and a “wash all” step with running buffer was performed at the end of each cycle to minimize the carry over effects. Each CAI were assayed in triplicate across three independent experiments.
The acquired data were processed using MP-SPR Navi Data Viewer software (version 6.7.0.1, BioNavis) employing the weighted centroid method for determining the SPR peak angular position. Signals from the reference flow channel were subtracted from the corresponding signals of the flow channel containing immobilized hCAII. The moment of sample injection was selected as the zero-time point, where both the time and MP-SPR response were set to zero. Processed data were globally fitted to a simple 1:1 interaction model using TraceDrawer software (version 1.9.2, Ridgeview Instruments AB, Sweden) to obtain kinetic parameters.

In series [6] the test system is pigmented rabbits. Also on record: method as in PMID 1263134, PMID 955835. The following applies: topical eye drops; cited from earlier work.
The test system of series [7] is albino rabbits. Also on record: method as in PMID 1263134, PMID 955835. To be noted: topical eye drops; cited from earlier work.
For series [8], the system named is pigmented rabbits. Details: method as in PMID 37130851. To be noted: intracameral injections; cited from earlier work.
The conditions of series [9]: topical, rabbits; cited from earlier work.
The test system of series [10] is albino rabbits. Also on record: method as in PMID 31515057, PMID 34274401. The following applies: cited from earlier work.
Series [11] concerns albino rats. Also on record: method as in PMID 25481859. The following applies: cited from earlier work.
Where [12] appears, read: melanin nanoparticles 0.5 mg/mL, read-out: Kd ± confidence (melanin binding).
Where [13] appears, read: Appendix table 1, Nano or Pico detector, read-out: Melanin binding affinity Kd ± confidence.

As a reminder, the Kd is the concentration at which binding is half-saturated. Broadly, the Ki is the dissociation constant of the complex between target and ligand, obtained from inhibition or displacement.

SMILES strings stand for the structures. Read-outs that look alike come from different tables or passages of the source.

Consider `NS(=O)(=O)c1ccc(-n2ncc(N3CCCCCC3)cc2=O)cc1` [A12], for which the Melanin binding classification entry in series [1] is reported as “intermediate (intermediate (65–650 μM))”. The Kd in series [1] (setting [12]) is 176 ± 159 µM. The “AUC0-last ± SD in albino rabbits (IOP decrease vs time)” value in series [2] was 13.80 ± 10.06 mmHg x h. Further, the “ratio (AUCpigm/AUCalbino) of IOP response” value in series [3] worked out at 9.0. Further, the Ki in series [4] is 0.06 ± 0.001 nM.
`CC(=NNc1ccc(S(N)(=O)=O)cc1Br)c1cccnc1` [A15]: the Kd in series [1] (setting [13]) came out at 230 ± 85 µM. Further, in series [5], the ka is recorded as 0.43 ± 0.25 10^6 M^–1 s^–1, the kd is 1.25 ± 0.43 10^–2 s^–1 and the Kd is 0.046 ± 0.0298 µM.
In the same order, the values of `CC(=NNc1ccc(S(N)(=O)=O)cc1)c1cnc2ccccc2n1` [A17] are 483 ± 137 µM, 0.13 ± 0.05 10^6 M^–1 s^–1, 1.27 ± 0.11 10^–2 s^–1 and 0.113 ± 0.0507 µM.
As for `CC(=NNc1ccc(S(N)(=O)=O)cc1)c1cncc(Br)c1` [A19], the Kd in series [1] (setting [13]) was 561 ± 299 µM. In addition, in series [5], the ka is 0.15 ± 0.04 10^6 M^–1 s^–1, the kd is recorded as 2.25 ± 0.02 10^–2 s^–1 and the Kd was 0.161 ± 0.041 µM.
Take `NS(=O)(=O)c1ccc(-n2ncc(N3CCOCC3)cc2=O)cc1` [A22]: the Melanin binding classification result in series [1] is on record as “low (low binders (>650 μM))”. The “AUC0-last ± SD in albino rabbits (IOP decrease vs time)” value in [2] was determined as 10.50 ± 8.73 mmHg x h. Further, the “AUC0-last ± SD in pigmented rabbits (IOP decrease vs time)” value in series [3] (hypertensive (triamcinolone) rabbits, single 25 μL eye drop, CAI 0.5 or 1.0%, dorzolamide 2%, n = 5) worked out at 88.10 ± 63.04 mmHg × h. The “ratio (AUCpigm/AUCalbino) of IOP response” value in series [3] was found to be 8.4. In addition, in series [4], the Ki is 0.55 ± 0.01 nM.
In the case of `CN1[C@@H]2CC[C@H]1C[C@@H](OC(=O)C(CO)c1ccccc1)C2` (some centres unmarked) [Atropine], in [1] (setting [12]), the Kd worked out at 758 ± 848 µM. The results for the “duration of mydriatic effect” value in series [6] and in series [7] were above 96 h and 43.5 h, respectively.
For the compound `Brc1c(NC2=NCCN2)ccc2nccnc12` [Brimonidine, reference compound], the Melanin binding classification entry in [1] was “high (high (<65 μM))”. Moreover, the Kd in series [1] (setting [12]) worked out at 25 µM. In addition, in series [8], the “duration of IOP decrease” value is on record as 7 days.
On to `CCN[C@H]1CN(CCCOC)S(=O)(=O)c2sc(S(N)(=O)=O)cc21` [Brinzolamide], for which the absolute ocular bioavailability in series [9] is reported as 0.10%.
`CCN[C@H]1C[C@H](C)S(=O)(=O)c2sc(S(N)(=O)=O)cc21` [Dorzolamide, reference compound]: the Melanin binding classification entry in series [1] is “intermediate (intermediate (65–650 μM))”. Moreover, the “duration of IOP decrease” value in series [2] (albino rabbits, single eye drop (0.5–1% CAI, 2% dorzolamide)) was below 8 h. The “AUC0-last ± SD in albino rabbits (IOP decrease vs time)” value in series [2] is on record as 15.55 ± 10.64 mmHg x h. Further, the “IOP reduction in normotensive pigmented rabbits” value in [3] (Chinchilla Bastard rabbits with normal (low) ocular pressure, before triamcinolone) is “no IOP reduction”. In addition, the results for the “duration of IOP-responses” value in [10] and in series [11] were around 6 h and around 4 h, respectively.

Source of the values: PMC11795524, “Melanin-Binding-Based Discovery of Topically Instilled Carbonic Anhydrase Inhibitors for Targeted Delivery and Prolonged Action in the Eye” (Molecular Pharmaceutics, 2025).
